From ChEMBL document CHEMBL4325876, “Novel 3-(2,6,9-trisubstituted-9H-purine)-8-chalcone derivatives as potent anti-gastric cancer agents: Design, synthesis and structural optimization” (Eur J Med Chem, 2019) come the findings set out here.

Bounds are passed on as bounds.

One data set has as its system MGC-803. The data set is described as follows: Cytotoxicity against human MGC803 cells assessed as inhibition of cell proliferation after 72 hrs by MTT assay. As to conditions: MGC-803, 72 h. Format: functional, cell-based.
With `CCCSc1nc(N2CCOCC2)c2nc(/C=C/C(=O)c3cccc(OC)n3)n(Cc3ccccc3)c2n1`, the IC50 is 8.62 µM.
Same read-out and setting: then `CCCSc1nc(N2CCOCC2)c2nc(/C=C/C(=O)c3ccc(C)cc3)n(CC3CCCCC3)c2n1`, with 4.02 µM.
On the same count and under the same terms, then `CCCSc1nc(N2CCCCC2)c2nc(/C=C/C(=O)c3ccc(C)cc3)n(Cc3ccccc3)c2n1`, with 15.7 µM; and `CCCSc1nc(N2CCOCC2)c2nc(/C=C/C(=O)c3ccccc3)n(Cc3ccccc3)c2n1`, with 4.74 µM.
Still for that read-out and setting: the same measure for `CCCSc1nc(N2CCOCC2)c2nc(-c3ccccc3)n(Cc3ccccc3)c2n1`: > 32 µM; for `CCCSc1nc(N2CCOCC2)c2nc(/C=C/C(=O)c3ccc(C)cc3)n(Cc3ccccc3)c2n1`: 1.55 µM.
For the molecule `CCCSc1nc(N2CCOCC2)c2nc(/C=C/C(=O)c3cc(OC)c(OC)c(OC)c3)n(Cc3ccccc3)c2n1`, the IC50 was found to be 6.52 µM.
Regarding `CCCSc1nc(NCc2ccccc2)c2nc(/C=C/C(=O)c3ccc(C)cc3)n(Cc3ccccc3)c2n1`, the IC50 came to 12.4 µM.
On the same count and under the same terms, then `CCCSc1nc(N2CCOCC2)c2nc(/C=C/C(=O)c3ccc(OC)c(OC)c3)n(Cc3ccccc3)c2n1`, with 4.91 µM; and `CCCSc1nc(N2CCOCC2)c2nc(/C=C/C(=O)c3ccc(OC)cc3)n(Cc3ccccc3)c2n1`, with 3.1 µM.

In another data set the test system is THP-1. The data set is described as follows: Cytotoxicity against human THP1 cells assessed as inhibition of cell proliferation after 72 hrs by MTT assay. Format: functional, cell-based. The conditions noted are these: THP-1, 72 h.
As to `CCCSc1nc(N2CCOCC2)c2nc(/C=C/C(=O)c3cccc(OC)n3)n(Cc3ccccc3)c2n1`, the IC50 came to 9.73 µM.
On the same count and under the same terms, then `CCCSc1nc(N2CCOCC2)c2nc(/C=C/C(=O)c3ccc(C)cc3)n(CC3CCCCC3)c2n1`, with 3.83 µM; and `CCCSc1nc(N2CCCCC2)c2nc(/C=C/C(=O)c3ccc(C)cc3)n(Cc3ccccc3)c2n1`, with > 32 µM.
For `CCCSc1nc(N2CCOCC2)c2nc(/C=C/C(=O)c3ccccc3)n(Cc3ccccc3)c2n1`, the IC50 came to 1.41 µM.
Still for that read-out and setting: then `CCCSc1nc(N2CCOCC2)c2nc(/C=C/C(=O)c3ccc(C)cc3)n(Cc3ccccc3)c2n1`, with 2.76 µM.
Regarding `CCCSc1nc(N2CCOCC2)c2nc(/C=C/C(=O)c3cc(OC)c(OC)c(OC)c3)n(Cc3ccccc3)c2n1`, the IC50 is > 32 µM.
Take `CCCSc1nc(NCc2ccccc2)c2nc(/C=C/C(=O)c3ccc(C)cc3)n(Cc3ccccc3)c2n1`: the IC50 is > 32 µM.
The same measure, in the same setting: then `CCCSc1nc(N2CCOCC2)c2nc(/C=C/C(=O)c3ccc(OC)c(OC)c3)n(Cc3ccccc3)c2n1`, with > 32 µM.
On to `CCCSc1nc(N2CCOCC2)c2nc(/C=C/C(=O)c3ccc(OC)cc3)n(Cc3ccccc3)c2n1`, for which the IC50 worked out at 2.52 µM.

The test system of another data set is A549. Nature of the data set: Cytotoxicity against human A549 cells assessed as inhibition of cell proliferation after 72 hrs by MTT assay. Format: functional, cell-based. The conditions noted are these: A549, 72 h.
For `CCCSc1nc(N2CCOCC2)c2nc(/C=C/C(=O)c3cccc(OC)n3)n(Cc3ccccc3)c2n1`, the IC50 is > 32 µM.
On the same count and under the same terms, the same measure for `CCCSc1nc(N2CCOCC2)c2nc(/C=C/C(=O)c3ccc(C)cc3)n(CC3CCCCC3)c2n1`: 10.5 µM; for `CCCSc1nc(N2CCCCC2)c2nc(/C=C/C(=O)c3ccc(C)cc3)n(Cc3ccccc3)c2n1`: > 32 µM.
On the same count and under the same terms, then `CCCSc1nc(N2CCOCC2)c2nc(/C=C/C(=O)c3ccccc3)n(Cc3ccccc3)c2n1`, with 14.9 µM; and `CCCSc1nc(N2CCOCC2)c2nc(-c3ccccc3)n(Cc3ccccc3)c2n1`, with > 32 µM; and `CCCSc1nc(N2CCOCC2)c2nc(/C=C/C(=O)c3ccc(C)cc3)n(Cc3ccccc3)c2n1`, with 4.9 µM.
`CCCSc1nc(N2CCOCC2)c2nc(/C=C/C(=O)c3cc(OC)c(OC)c(OC)c3)n(Cc3ccccc3)c2n1`: the IC50 is > 32 µM.
Still for that read-out and setting: then `CCCSc1nc(NCc2ccccc2)c2nc(/C=C/C(=O)c3ccc(C)cc3)n(Cc3ccccc3)c2n1`, with 30.1 µM; and `CCCSc1nc(N2CCOCC2)c2nc(/C=C/C(=O)c3ccc(OC)c(OC)c3)n(Cc3ccccc3)c2n1`, with 9.74 µM.
On the same count and under the same terms, the same measure for `CCCSc1nc(N2CCOCC2)c2nc(/C=C/C(=O)c3ccc(OC)cc3)n(Cc3ccccc3)c2n1`: 7.63 µM.

Test system in the next data set: not listed separately
Nature of the data set: Selectivity index, ratio of IC50 for human GES-1 cells to IC50 for human MGC803 cells. Format: toxicity. The conditions noted are these: GES-1 cells versus MGC803 cells, read-out: Ratio IC50.
With `CCCSc1nc(N2CCOCC2)c2nc(/C=C/C(=O)c3ccccc3)n(Cc3ccccc3)c2n1`, the selectivity ratio is 7.5.

The next data set concerns TE-1. The data set is described as follows: Cytotoxicity against human TE1 cells assessed as inhibition of cell proliferation after 72 hrs by MTT assay. The conditions noted are these: TE-1, 72 h. Format: functional, cell-based.
Turning to `CCCSc1nc(N2CCOCC2)c2nc(/C=C/C(=O)c3cccc(OC)n3)n(Cc3ccccc3)c2n1`, the IC50 is 10.7 µM.
Take `CCCSc1nc(N2CCOCC2)c2nc(/C=C/C(=O)c3ccc(C)cc3)n(CC3CCCCC3)c2n1`: the IC50 came to 8.43 µM.
For the molecule `CCCSc1nc(N2CCCCC2)c2nc(/C=C/C(=O)c3ccc(C)cc3)n(Cc3ccccc3)c2n1`, the IC50 was > 32 µM.
Turning to `CCCSc1nc(N2CCOCC2)c2nc(/C=C/C(=O)c3ccccc3)n(Cc3ccccc3)c2n1`, the IC50 turned out to be 7.38 µM.
Same read-out and setting: then `CCCSc1nc(N2CCOCC2)c2nc(/C=C/C(=O)c3ccc(C)cc3)n(Cc3ccccc3)c2n1`, with 3.63 µM.
Same read-out and setting: then `CCCSc1nc(N2CCOCC2)c2nc(/C=C/C(=O)c3cc(OC)c(OC)c(OC)c3)n(Cc3ccccc3)c2n1`, with 9.93 µM; and `CCCSc1nc(NCc2ccccc2)c2nc(/C=C/C(=O)c3ccc(C)cc3)n(Cc3ccccc3)c2n1`, with > 32 µM.
Take `CCCSc1nc(N2CCOCC2)c2nc(/C=C/C(=O)c3ccc(OC)c(OC)c3)n(Cc3ccccc3)c2n1`: the concentration for half-maximal inhibition (IC50) came out at 8.56 µM.
Take `CCCSc1nc(N2CCOCC2)c2nc(/C=C/C(=O)c3ccc(OC)cc3)n(Cc3ccccc3)c2n1`: the IC50 was determined as 5.87 µM.

For a further data set, the system named is GES1. Nature of the data set: Cytotoxicity against human GES-1 cells assessed as inhibition of cell proliferation after 72 hrs by MTT assay. Format: cell-based. As to conditions: GES1, 72 h.
In the case of `CCCSc1nc(N2CCOCC2)c2nc(/C=C/C(=O)c3ccccc3)n(Cc3ccccc3)c2n1`, the IC50 is 35.6 µM.
